Test results published in patent US20250129031A1, “1,2,3-TRIAZOLE CARBONYL SULFONYLAMIDE COMPOUNDS AND USE THEREOF” (PI INDUSTRIES LTD., priority 2022, published 2025).

Tested on: Meloidogyne incognita
Experiment: Meloidogyne incognita test: gall rating on cucumber plants in pots after soil application
Assay type: in vivo
Set-up: key: 0: no galls; 1: very few small galls; 2: numerous small galls; 3: numerous small galls of which some are grown together; 4: numerous small and some big galls; 25% of roots severely galled; 6: 50% of roots severely galled; 75% of roots severely galled; 8: no healthy roots but plant is still green; 9: roots rotting and plant dying; 10: plant and roots dead
Conditions: 1000 ppm applied to soil inoculated with 5000 eggs & J2s; cucumber seedlings; rated 30 days after application; 0-10 scale (Zeck 1971); untreated check up to 8
Experimental: Meloidogyne incognita Test:
The trial pots were filled with soil containing a mixture of sand:soil:cocopeat in a ratio of 1:1:1. To the soil of each pot 5 mL of a nematode suspension (Meloidogyne incognita, mix of 5000 eggs & J2s) was added. One hour later the respective test compound at the stated concentration was applied to each pot. 10 days old cucumber seedlings were transplanted into the pots one day after the application. The cucumber plants were allowed to grow at a temperature of 27° C. under greenhouse conditions. The evaluation of the gall rating was recorded 30 days after the application. The plants were carefully uprooted and the roots were thoroughly washed. The gall rating was done on a 0-10 scale as described by Zeck (1971) and shown below: • 0=no galls • 1=very few small galls • 2=numerous small galls • 3=numerous small galls of which some are grown together • 4=numerous small and some big galls • 5=25% of roots severely galled • 6=50% of roots severely galled • 7=75% of roots severely galled • 8=no healthy roots but plant is still green • 9=roots rotting and plant dying • 10=plant and roots dead

SMILES	gall rating scale
N#Cc1ccc(-n2nnc(C(=O)NS(=O)(=O)c3ccccc3Cl)c2C(F)(F)F)c(F)c1 [Compound 563, N-((2-chlorophenyl)sulfonyl)-1-(4-cyano-2-fluorophenyl)-5-(trifluoromethyl)-1H-1,2,3-triazole-4-carboxamide]	4
COc1ccc(Cl)cc1S(=O)(=O)NC(=O)c1nnn(-c2ccc(OC(F)(F)F)cc2Cl)c1C [Compound 586]	4
COc1ccc(C)cc1S(=O)(=O)NC(=O)c1nnn(-c2ccc(OC(F)(F)F)cc2Cl)c1C [Compound 587]	4
Cc1ccc(F)cc1S(=O)(=O)NC(=O)c1nnn(-c2ccc(OC(F)(F)F)cc2Cl)c1C [Compound 588]	4
COc1ccc(C)cc1S(=O)(=O)NC(=O)c1nnn(-c2ccc(OC(F)(F)F)cc2Cl)c1C(F)(F)F [Compound 590]	4
Cc1c(Cl)cccc1S(=O)(=O)NC(=O)c1nnn(-c2ccc(OC(F)(F)F)cc2Cl)c1C(F)(F)F [Compound 596, N-((3-chloro-2-methylphenyl)sulfonyl)-1-(2-chloro-4-(trifluoromethoxy)phenyl)-5-(trifluoromethyl)-1H-1,2,3-triazole-4-carboxamide]	4
Cc1ccc(F)cc1S(=O)(=O)NC(=O)c1nnn(-c2ccc(OC(F)(F)F)cc2Cl)c1C(F)(F)F [Compound 597]	4
COc1ccc(Cl)cc1S(=O)(=O)NC(=O)c1nnn(-c2ccc(Cl)cc2Cl)c1C(F)(F)F [Compound 598]	4
COc1ccc(C)cc1S(=O)(=O)NC(=O)c1nnn(-c2ccc(Cl)cc2Cl)c1C(F)(F)F [Compound 599]	4
N#Cc1ccc(-n2nnc(C(=O)NS(=O)(=O)c3cc(Cl)c(F)cc3F)c2C(F)(F)F)c(F)c1 [Compound 610, N-((5-chloro-2,4-difluorophenyl)sulfonyl)-1-(4-cyano-2-fluorophenyl)-5-(trifluoromethyl)-1H-1,2,3-triazole-4-carboxamide]	4
COc1ccc(Cl)c(S(=O)(=O)NC(=O)c2nnn(-c3ccc(Cl)cc3F)c2C(F)(F)F)c1 [Compound 630]	4
O=C(NS(=O)(=O)c1cc(C(F)(F)F)ccc1Cl)c1nnn(-c2ccc(Cl)cc2F)c1C(F)(F)F [Compound 631]	4
O=C(NS(=O)(=O)c1ccccc1C(F)(F)F)c1nnn(-c2ccc(Cl)cc2F)c1C(F)(F)F [Compound 640]	4
Cc1c(C(=O)NS(=O)(=O)c2ccccc2C(F)(F)F)nnn1-c1cc(Cl)c(Cl)cc1Cl [Compound 657]	4
COc1ccc(Cl)c(S(=O)(=O)NC(=O)c2nnn(-c3ccc(OC(F)F)cc3Cl)c2C)c1 [Compound 664]	4
Cc1c(C(=O)NS(=O)(=O)c2cc(C(F)(F)F)ccc2Cl)nnn1-c1ccc(OC(F)F)cc1Cl [Compound 665]	4
Cc1c(C(=O)NS(=O)(=O)c2cc(Cl)ccc2Cl)nnn1-c1ccc(OC(F)F)cc1Cl [Compound 666]	4
Cc1ccc(C)c(S(=O)(=O)NC(=O)c2nnn(-c3ccc(OC(F)F)cc3Cl)c2C)c1 [Compound 667]	4

SMILES	gall rating scale
Cc1c(C(=O)NS(=O)(=O)c2ccccc2F)nnn1-c1ccc(OC(F)F)cc1Cl [Compound 668]	4
Cc1c(C(=O)NS(=O)(=O)c2ccccc2C(F)(F)F)nnn1-c1ccc(OC(F)F)cc1Cl [Compound 669]	4
Cc1ccc(C)c(S(=O)(=O)NC(=O)c2nnn(-c3ccc(C(F)(F)F)cc3Cl)c2C)c1 [Compound 670]	4
Cc1c(C(=O)NS(=O)(=O)c2ccccc2Cl)nnn1-c1ccc(OC(F)F)cc1Cl [Compound 671]	4
Cc1c(C(=O)NS(=O)(=O)c2ccc(F)cc2F)nnn1-c1ccc(OC(F)F)cc1Cl [Compound 672]	4
Cc1c(C(=O)NS(=O)(=O)c2cc(F)cc(F)c2)nnn1-c1ccc(OC(F)F)cc1Cl [Compound 673]	4
Cc1c(C(=O)NS(=O)(=O)c2cc(F)ccc2F)nnn1-c1ccc(OC(F)F)cc1Cl [Compound 674]	4
Cc1c(C(=O)NS(=O)(=O)c2c(F)cc(F)cc2F)nnn1-c1ccc(OC(F)F)cc1Cl [Compound 675]	4
Cc1c(C(=O)NS(=O)(=O)c2cc(Cl)c(Cl)cc2Cl)nnn1-c1ccc(OC(F)F)cc1Cl [Compound 676]	4
Cc1c(C(=O)NS(=O)(=O)c2ccc(F)cc2F)nnn1-c1cc(Cl)c(Cl)cc1Cl [Compound 683]	4
Cc1c(C(=O)NS(=O)(=O)c2ccccc2C(F)(F)F)nnn1-c1ccc(F)cc1F [Compound 687]	4
Cc1c(C(=O)NS(=O)(=O)c2ccccc2Cl)nnn1-c1ccc(F)cc1F [Compound 689]	4
Cc1c(C(=O)NS(=O)(=O)c2cc(C(F)(F)F)ccc2C(F)(F)F)nnn1-c1ccc(F)cc1F [Compound 690]	4
Cc1c(C(=O)NS(=O)(=O)c2cc(Cl)ccc2F)nnn1-c1ccc(F)cc1F [Compound 691]	4
O=C(NS(=O)(=O)c1ccc(Cl)cc1Cl)c1nnn(-c2cc(Cl)c(Cl)cc2Cl)c1C(F)(F)F [Compound 709]	4
O=C(NS(=O)(=O)c1ccccc1C(F)(F)F)c1nnn(-c2ccc(F)cc2F)c1C(F)(F)F [Compound 736]	4
O=C(NS(=O)(=O)c1cc(C(F)(F)F)ccc1Cl)c1nnn(-c2ccc(F)cc2F)c1C(F)(F)F [Compound 774]	4
Cc1ccccc1S(=O)(=O)NC(=O)c1nnn(-c2ccc(F)cc2F)c1C(F)(F)F [Compound 776]	4
